# According to patent publication US6465654B2, “Process for preparing 1-substituted, 2-substituted 1H-imidazo[4, 5-c]quinoline-4-amines” (3M Innovative Properties Company, priority 1991, dated 2002):
# Tests used:
# [1] = tested on: Herpes simplex virus Type II strain 333; experiment: Antiviral activity in guinea pigs infected with Herpes simplex virus Type II (lesion inhibition); assay type: in vivo; conditions: oral once daily for four days
# Excerpt: Female Hartley guinea pigs weighing 200 to 250 g are anesthetized with methoxyflurane (available under the […] from Pitman-Moore, Inc., Washington Crossing, N.J.), after which the vaginal area is swabbed with a dry cotton swab. The guinea pigs are then infected intravaginally with a cotton swab saturated with Herpes simplex virus Type II strain 333 (1×10^5 plaque forming units/mL). Guinea pigs are assigned to groups of 7 animals; one group for each treatment and one to serve as a control (vehicle treated). The compounds of the invention are formulated in water containing 5% Tween 80 (a polyoxyethylene sorbitan monooleate available from Aldrich Chemical Company, Inc., Milwaukee, Wis.). The, guinea pigs are treated orally once daily for four consecutive days starting 24 hours after infection. Antiviral activity is evaluated by comparing lesion development in compound-treated versus vehicle-treated guinea pigs. […] The maximum lesion score of each guinea pig is used to calculate the percentage lesion inhibition. The percentage lesion inhibition is calculated as follows: […]
# [2] = tested on: interferon-α; experiment: Interferon-α induction in human cells, PBM; assay type: cell-based; conditions: 24 hours
# [3] = tested on: interferon; experiment: Interferon induction in mice; assay type: in vivo; conditions: mouse serum
# Procedure, shortened: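 Interferon titres expressed as α/β reference units/mL relative to mouse MU-1-IF standard, "<" denoting undetectable. Pooled serum came from mouse groups bled at 1, 2 or 4 h, frozen at −70° C, analysed like human-cell samples.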
# [4] = tested on: interferon; experiment: Interferon induction in guinea pigs (serum interferon titer); assay type: in vivo; conditions: guinea pig serum 24 hours after initial oral dose, 2 mg/kg
# Excerpt: Female Hartley guinea pigs weighing 200 to 250 g are anesthetized with methoxyflurane (available under the […] from Pitman-Moore, Inc., Washington Crossing, N.J.), after which the vaginal area is swabbed with a dry cotton swab. The guinea pigs are then infected intravaginally with a cotton swab saturated with Herpes simplex virus Type II strain 333 (1×10^5 plaque forming units/mL). Guinea pigs are assigned to groups of 7 animals; one group for each treatment and one to serve as a control (vehicle treated). The compounds of the invention are formulated in water containing 5% Tween 80 (a polyoxyethylene sorbitan monooleate available from Aldrich Chemical Company, Inc., Milwaukee, Wis.). The, guinea pigs are treated orally once daily for four consecutive days starting 24 hours after infection. Twenty-four hours after the initial dose of test compound has been administered, blood is obtained from 3 guinea pigs from each treatment group by cardiac puncture of methoxyflurane anesthetized animals. Blood is pooled and allowed to clot at room temperature. After low speed centrifugation, serum is collected and stored at -70° C. until analysis. Interferon levels in the guinea pig serum are determined in a standard microtiter assay using transformed guinea pig cells (ATCC CRL 1405). The interferon assay is done in 96 well microtiter plates. Confluent monolayers of transformed guinea pig cells are treated with dilutions of guinea pig serum made with medium 199 (GIBCO, Grand Island, N.Y.). The cell and serum dilutions are incubated at 37° C. overnight. The following day, the medium and serum are removed and about 10 plaque forming units of Mengovirus are added to each well. Controls consist of wells that receive no guinea pig serum (virus positive control) and wells that receive no virus (virus negative control). Cells and virus are incubated for 2 to 3 days at 37° C. before quantifying for viral cytopathic effect. The viral cytopathic effect is quantified by staining with 0.05% crystal violet followed by spectrophotometric absorbance measurements. The titer of interferon in serum is expressed as units/mL and is the reciprocal of the highest dilution that protects cells from virus.
# [5] = tested on: MC-26 colon tumor cells; experiment: Inhibition of MC-26 tumors in mice, 14 day lung colony count; assay type: in vivo; conditions: lung colonies day 14, 4×10^4 MC-26 cells i.v., oral 30 mg/kg on days 3-7 and 10-14; control 385 ± 31
# Method: The mice are sacrificed 14 days later. […] Five mice are in each treatment group and comparisons are made to controls. […] The mice in the control groups were dosed orally with saline (10 mL/kg) on days 3, 4, 5, 6, and 7, and with water (10 mL/kg) on days 10, 11, 12, 13, and 14.
# [6] = tested on: interferon-α; experiment: Interferon-α induction in human cells, diluted whole blood; assay type: cell-based; conditions: 24 hours
Structure (SMILES),% Lesion Inhibition ([1]; dose 2 mg/kg) [%],Interferon-α induction ([2]; dose concentration 0.01 μg/mL),Interferon-α induction ([2]; dose concentration 0.05 μg/mL),Interferon-α induction ([2]; dose concentration 0.10 μg/mL),Interferon-α induction ([2]; dose concentration 0.50 μg/mL),Interferon-α induction ([2]; dose concentration 1.0 μg/mL),Interferon-α induction ([2]; dose concentration 5.0 μg/mL),"Interferon induction in mice ([3]; oral 1 mg/kg, 1 hr) [Reference Units/mL]","Interferon induction in mice ([3]; oral 1 mg/kg, 2 hr) [Reference Units/mL]","Interferon induction in mice ([3]; oral 1 mg/kg, 4 hr)","Interferon induction in mice ([3]; oral 3 mg/kg, 1 hr)","Interferon induction in mice ([3]; oral 3 mg/kg, 2 hr)","Interferon induction in mice ([3]; oral 3 mg/kg, 4 hr) [Reference Units/mL]","Interferon induction in mice ([3]; oral 10 mg/kg, 1 hr) [Reference Units/mL]","Interferon induction in mice ([3]; oral 10 mg/kg, 2 hr)","Interferon induction in mice ([3]; oral 10 mg/kg, 4 hr)","Interferon induction in mice ([3]; oral 30 mg/kg, 1 hr) [Reference Units/mL]","Interferon induction in mice ([3]; oral 0.3 mg/kg, 1 hr) [Reference Units/mL]","Interferon induction in mice ([3]; oral 0.3 mg/kg, 2 hr)","Interferon induction in mice ([3]; oral 0.3 mg/kg, 4 hr) [Reference Units/mL]",further results
"CC(C)Cn1c(CO)nc2c(N)nc3ccccc3c21 [Example 9, 4-Amino-1-(2-methylpropyl)-1H-imidazo-[4,5-c]quinoline-2-methanol]",37,<1.8 α Reference Units/mL,16 α Reference Units/mL,140 α Reference Units/mL,750 α Reference Units/mL,750 α Reference Units/mL,750 α Reference Units/mL,<47,<47,<47 Reference Units/mL,≦47 Reference Units/mL,≦47 Reference Units/mL,<47,330,740 Reference Units/mL,≦47 Reference Units/mL,2900,,,,"Interferon induction in mice ([3]; oral 30 mg/kg, 2 hr): 5000 Reference Units/mL; Interferon induction in mice ([3]; oral 30 mg/kg, 4 hr): 4 Reference Units/mL; Reference Units/mL (interferon in serum) [4]: 266 Units/mL"
"COCCn1c(COC)nc2c(N)nc3ccccc3c21 [Example 37, 1-(2-Methoxyethyl)-2-methoxymethyl-1H-imidazo[4,5-c]quinolin-4-amine]",,,,<4 α Reference Units/mL,2500 α Reference Units/mL,2500 α Reference Units/mL,210 α Reference Units/mL,<120,<120,<120 Reference Units/mL,<120 Reference Units/mL,<120 Reference Units/mL,<120,270,≦270 Reference Units/mL,≦270 Reference Units/mL,,<120,<120 Reference Units/mL,<120,Number of Colonies [5]: 123 ± 31
"CC(C)Cn1c(C(C)O)nc2c(N)nc3ccccc3c21 (stereo not drawn) [Example 20, 4-Amino-α-methyl-1-(2-methylpropyl)-1H-imidazo[4,5c]-quinoline-2-methanol]",100,<1.8 α Reference Units/mL,190 α Reference Units/mL,190 α Reference Units/mL,1000 α Reference Units/mL,1000 α Reference Units/mL,1000 α Reference Units/mL,140,560,<47 Reference Units/mL,970 Reference Units/mL,1200 Reference Units/mL,140,2200,5000 Reference Units/mL,100 Reference Units/mL,2200,,,,"Interferon-α induction ([6]; dose concentration 0.10 μg/mL): 85 α Reference Units/mL; Interferon-α induction ([6]; dose concentration 0.50 μg/mL): 440 α Reference Units/mL; Interferon-α induction ([6]; dose concentration 1.0 μg/mL): 250 α Reference Units/mL; Interferon-α induction ([6]; dose concentration 5.0 μg/mL): 190 α Reference Units/mL; Interferon induction in mice ([3]; oral 30 mg/kg, 2 hr): 8700 Reference Units/mL; Interferon induction in mice ([3]; oral 30 mg/kg, 4 hr): 320 Reference Units/mL"
"CC(C)Cn1c(CCl)nc2c(N)nc3ccccc3c21.Cl [Example 10, 2-Chloromethyl-1-(2-methylpropyl)-1H-imidazo[4,5-c]quinolin-4-amine Hydrochloride]",,<1.3 α Reference Units/mL,28 α Reference Units/mL,140 α Reference Units/mL,750 α Reference Units/mL,750 α Reference Units/mL,190 α Reference Units/mL,<120,<120,<120 Reference Units/mL,<120 Reference Units/mL,<120 Reference Units/mL,<120,<120,<120 Reference Units/mL,600 Reference Units/mL,,<120,<120 Reference Units/mL,<120,% Lesion Inhibition ([1]; dose 0.5 mg/kg): 29%; Interferon-α induction ([6]; dose concentration 0.10 μg/mL): <1.5 α Reference Units/mL; Interferon-α induction ([6]; dose concentration 0.50 μg/mL): 96 α Reference Units/mL; Interferon-α induction ([6]; dose concentration 1.0 μg/mL): 120 α Reference Units/mL; Interferon-α induction ([6]; dose concentration 5.0 μg/mL): 120 α Reference Units/mL
"CC(C)Cn1c(CN2CCCC2)nc2c(N)nc3ccccc3c21 [Example 13, 1-(2-Methylpropyl)-2-pyrrolidinomethyl-1H-imidazo[4,5-c]quinolin-4-amine]",67,,,<1.9 α Reference Units/mL,10 α Reference Units/mL,10 α Reference Units/mL,4 α Reference Units/mL,130,530,≦100 Reference Units/mL,230 Reference Units/mL,400 Reference Units/mL,130,700,1200 Reference Units/mL,400 Reference Units/mL,,<59,≦130 Reference Units/mL,<59,
